The test system of experiment [1] is human sarcoma cell line U2OS. As to the kind of experiment: Cell viability (MTT) assay, U2OS. The format is cell-based. The conditions noted are these: Homo sapiens. As to the method:
(§1) Human sarcoma cell lines (RD2, RH30, U2OS) were seeded in 96-well plates at a density of 3,000 cells per well. The cells were incubated at 37° C. for a period of 24 hours. Different concentrations of LY-5 (0.1-10 μM), LY-3 (0.1-20 μM), and LLL12 (0.1-10 μM) prepared as a 20 mM stock solution in sterile DMSO were added in triplicate to the plates in the presence of 10% FBS. 3-(4,5-Dimethylthiazolyl)-2, 5-diphenyltetrazoliumbromide (MTT) was added to evaluate cell viability. The absorbance was read at 595 nm. IC50 values were determined using SigmaPlot 9.0 Software (Systat Software, Inc., San Jose, Calif.).
(§2) Alternatively, cells were seeded in 96-well plates in triplicate at a density of 3,000 cells per well and given 24 hours to adhere. Cells were then treated with varying concentrations of the inhibitors in the presence of 10% FBS. The cells were incubated for 72 hours at 37° C. 25 μl of MTT dye (Sigma, #M5655) was added to each sample and incubated for 3.5 hours. After this, 100 μl of N,N-dimethylformamide (Sigma, #D4551) solubilization solution was added to each well. The absorbance at 450 nm was read the following day. Half-Maximal inhibitory concentrations (IC50) were determined using Sigma Plot 9.0 software (Systat Software Inc.).
Table 6 below lists specific compounds as well as experimentally determined STAT3 activity in a cell-based assay. The STAT3 activity was determined using the cell viability assays with human sarcoma cell line U2OS as described above. The compounds in Table 6 were synthesized with methods identical or analogous to those described herein. The compound reference numbers (“Ref. No.”) in Table 6 correspond to the compound numbers used in Table 3.

The test system of experiment [2] is STAT3 nuclear translocation. As to the kind of experiment: Immunofluorescence assay, nuclear translocation. In kind it is cell-based, human. Conditions: SJSA; 1 or 2.5 μM; 4 h. The protocol: Cells seeded on glass slides in 6-well plate were cultured in serum-free medium for 24 hours. After the cell density reached about 80%, cells were pretreated with LY5 (1 or 2.5 μM) for 4 hours followed by IL-6 or IFN-γ (50 ng/ml), for 30 min, and were fixed with cold methanol for 15 min. After washing in phosphate-buffered saline (PBS), the slides were blocked with 5% normal goat serum and 0.3% Triton X-100 in PBS (PBST) for 1 hour. The slides were incubated with primary antibodies (1:100) against STAT3 or P-STAT1 proteins (Cell Signaling Technology) overnight at 4° C. Then, the slides were washed with PBST and incubated with goat anti-rabbit FIFC-conjugated secondary antibody (Invitrogen, 1:200). The cells were mounted with Vectashield Hardset mounting medium with DAPI (Vector Laboratories, Burlingame, Calif., USA). Photomicrographs were captured by Leica Microsystems (Bannockburn, Ill., USA).

For experiment [3], the system named is human sarcoma cell line RD2. Nature of the experiment: Cell viability (MTT) assay, RD2. The format is cell-based. As to the method:
as §1, §2
Table 7 below lists specific compounds as well as experimentally determined STAT3 activity in a cell-based assay. The STAT3 activity was determined using the cell viability assays with human sarcoma cell lines (RD2, RH30, U2OS) as described above. The compound reference numbers (“Ref. No.”) in Table 7 correspond to the compound numbers used in Table 3.

Experiment [4] has as its system STAT5. As to the kind of experiment: Western blot, STAT5 after OSM stimulation. Conditions: MCF-7; 1 and 2.5 μM; OSM 50 ng/mL. The format is cell-based, human. The protocol: RH30 cells were treated with DMSO, LY-5 (0.25-1 μM) and LY-3 (0.5-2.5 μM) prepared as a 20 mM stock solution in sterile DMSO at 60% to 80% confluence in the presence of 10% FBS for 24 hours. The sarcoma cell line EW8 was treated with DMSO and LY-5 (0.5-2.5 μM) prepared as a 20 mM stock solution in sterile DMSO at 60% to 80% confluence in the presence of 10% FBS for 24 hours. MCF-7 cells and DAOY cells were treated with DMSO, 25-50 ng/ml of IL-6, LY-5 (0.25-1 μM) or LY-3 (0.5-2.5 μM) prepared as a 20 mM stock solution in sterile DMSO, protein expressions of P-STAT3 (Tyr705) and STAT3 were tested. DAOY cells were treated with DMSO, 50 ng/ml of IFN-γ, LY-5 (1-5 μM) prepared as a 20 mM stock solution in sterile DMSO, protein expressions of P-STAT3 (Tyr705) and STAT3 were tested. MCF-7 cells were treated with DMSO, 50 ng/ml of OSM, LY-5 (1-2.5 μM) or LLL12 (1-2.5 μM) prepared as a 20 mM stock solution in sterile DMSO, protein expressions of P-STAT3 (Tyr705), P-STAT1, P-STAT5, P-ERK (T202/Y204), P-AKT, STAT3 and STAT1 were tested.
MCF-7 breast cancer cells were seeded in 10 cm plates and allowed to adhere overnight. The following day, the cells were serum-starved. The cells were then left untreated or were treated with LY-5 and LLL12 (1 μM and 2.5 μM) prepared as a 20 mM stock solution in sterile DMSO or DMSO. […] The cells were harvested after 30 minutes and analyzed by Western blot.

The test system of experiment [5] is IL-6 secretion. Nature of the experiment: IL-6 secretion. In kind it is cell-based, human. The conditions noted are these: FIG. 57(C).
The subject of experiment [6] is HUVEC. As to the kind of experiment: Matrigel invasion assay. Conditions: 300 nM. In kind it is cell-based, human. The protocol: The Matrigel invasion assays were carried out using Matrigel precoated inserts (BD Bioscience) following the manufacturer's instructions. Six hundred μl of M200 medium with or without VEGF (20 ng/ml, R&D Systems) was placed in the lower wells. Proliferating HUVECs (4×10^5 cells/ml) were pretreated with LY5 (300 nM) and 100 μl of cell suspension was loaded into each of the upper wells. The chambers were incubated for 18-20 hr at 37° C. After incubation, the inserts were removed, and the non-invading cells on the upper surface were removed with a cotton swab. The cells on the lower surface of the membrane were fixed in 100% methanol for 15 minutes, air-dried, and stained with Diff-Quik stain for 2 min. The cells were counted in six individual high-power fields for each membrane condition under a light microscope. Assays were performed in triplicate for each treatment group and the results were expressed as migrated cells per field for each condition.

The text below walks through data of patent US9783513B2, “STAT3 inhibitors and their anticancer use” (Ohio State Innovation Foundation, priority 2012, dated 2017).

Like-named read-outs stand apart in the source and are kept apart here.

One may read the IC50 as the concentration that gives 50% inhibition. Turning to `NS(=O)(=O)c1cccc2c1C(=O)C=C(Nc1cccnc1)C2=O` [LY-5, 5,8-dioxo-6-(pyridin-3-ylamino)-5,8-dihydronaphthalene-1-sulfonamide], the IC50 in experiment [1] (Table 2, cell line not given, read-out: IC50) turned out to be 500 nM; in experiment [1] (Table 7, read-out: IC50 U2OS) it was 520 nM; in experiment [1] (Table 8, read-out: IC50 values vs. cell lines, U2OS) it was 520 nM; in experiment [3] (Table 7, read-out: IC50 RD2), 1390 nM; in experiment [3] (Table 8, read-out: IC50 values vs. cell lines, RD2), 1390 nM. For the same compound, the “IFN-γ induced STAT3 nuclear translocation” value in experiment [2] was “does not inhibit”. Moreover, the “IL-6 induced STAT3 nuclear translocation” value in experiment [2] is recorded as “inhibits”. Also, the “inhibition of STAT5” value in experiment [4] is “exhibit inhibition”. Besides, the IL-6 secretion result in experiment [5] is given as “can decrease”. For the same compound, the “HUVECs invasion through Matrigel coated membranes” value in experiment [6] is on record as “prevented”.
